In one data set the test system is A549 cell lines. Put plainly: MTT proliferation assay, A549 cells. In kind it is cell-based. Particulars: Homo sapiens, A549 (A549-Luc) cells. How it is done: The A549 (human lung carcinoma) cell line was grown in a Dulbecco’s Modified Eagle Medium (DMEM) containing 10% fetal bovine serum (FBS) and 100 units/mL penicillin–100 μg/mL streptomycin and 2 mM L-glutamine for cytotoxicity experiments. Cells were maintained at 37 °C temperature conditions containing 5% CO2. When the cells covered 95–98% of the flask, they were passaged.
The 3-(4,5-dimethylthiazol-2-yl)-2,5-diphenyltetrazolium bromide (MTT) proliferation assay was performed to evaluate the cytotoxicity of the 3 and 4 compounds. Cells were seeded at a density of 5 × 10^4 cells/cm^2 and incubated at 37 °C in 95% air, 5% CO2 environments for 24 h. Substances 3 and 4 were first dissolved in DMSO, then dilutions were prepared by dispersing them in the DMEM cell growth medium. The dose intervals of substances 3 and 4 were prepared as 400, 200, 100, 50, and 25 μM. The dose intervals of substances 3 and 4 were placed on a 24-well cell culture plate and then incubated for 24 h. After incubation, the medium was removed and replaced with the MTT-containing medium. Plates were incubated for an additional 4 h at 37 °C. MTT medium was removed, and 100 μL of DMSO was added to dissolve the formazan crystals. The absorbance was determined using a plate reader at a wavelength of 540 nm. IC50 values for 24, 48, and 72 h were calculated using GraphPad Prism5 software (GraphPad, San Diego, CA).
Our group recently determined that isoindole-1,3-dione derivatives are potential tyrosine kinase enzyme inhibitors and have antiproliferative effects against some cell lines according to MTT test results. It has been confirmed that the antiproliferative effects vary according to the nitrogen (N) atom and the groups attached to the ring. In addition, some compounds are known to exert cytotoxic effects against more than one cell line. […] Benzyl derivatives of isoindole-1,3-dione 3 and 4 were synthesized according to the method used in our previous work.[9] First, the cytotoxic effects of both compounds against A549-Luc cells were examined. IC50 values of those drugs were calculated using the MTT activity assay. Cell viability of A549-Luc cells using two compounds was followed for 24, 48, and 72 h of incubation time. According to the results of these experiments, the optimum incubation period was determined as 48 h.
In general terms: Tetrazolium assays rely on reduction of a dye to a coloured formazan, in cell work by metabolically active cells.

Data set [1] deals with A549-Luc lung cancer cells. Put plainly: In vivo xenograft tumor model, tumor size by IVIS imaging. More on the design: species or system nude mice. Particulars: for tumor size: individual nude mice, Tnd = tumor not detected, Ex = dead; for tumor outcome after treatment: A549-Luc xenograft nude mice, IVIS imaging; for tumor size initially: before treatment, individual nude mice (1)-(5). The method, then:
Luc cell line (A549-Luc cell), which has luciferase activity, was used to determine the cancer treatment potential of compounds 3 and 4 for in vivo experiments. Cells were cultured in DMEM Ham’s F12 [10% FBS, 1% L-glutamine, 1% gentamicin, and 1 mM 4-(2-hydroxyethyl)-1-piperazineethanesulfonic acid] broth in a CO2 incubator set at 37 °C. Sufficient stocks were prepared by passaging the cells twice a week, and cells that actively proliferated in the logarithmic phase were used in the tests.
Approval for monitoring the cancer treatment potential of the synthesized structures in vivo conditions was taken by the Animal Ethics Committee of Ege University on 24.01.2018 with the number 2018-015. Male atypical nude mice, 6–8 weeks old, were used for in vivo xenograft tumor models. […] For the purpose of xenograft administration, nude mice were injected subcutaneously with 100 μL of 5 × 10^6 A549-Luc cell suspension. The presence of cancer after cell administration to nude mice was followed by imaging with an IVIS device. In order to monitor tumor formation and tumor volume detection, luciferin [Biovision Inc., USA; 12 mg/mL in phosphate-buffered saline (PBS)] was injected intraperitoneally followed by visualization with IVIS 5 min later. When tumor volume reaches about 2000 mm^3, cancerous nudes are divided into three groups: the control group, 3 group, and 4 group. Grouping was made as 3–5 animals in each group. The following procedures were prepared according to the groups, and then they were implemented. In addition, the weights of nude mice were regularly checked and recorded.
Compound 3(Y) group: Compound 3(Y) was prepared in DMSO at a concentration of 200 μM, and 20 μL was administered via the tail vein in three doses a week.
Compound 4(X) group: Compound 4(X) was prepared in DMSO at a concentration of 200 μM, and 20 μL was given three doses a week through the tail vein.
Male atypical nude mice aged 6–8 weeks are commonly used in in vivo xenograft tumor models. A549-luc lung cancer cells were injected into nude mice in all three groups, and tumor growth was induced with a xenograft model. For xenograft administration, 100 μL of 5 × 10^6 A549-luc cell suspension was injected subcutaneously into nude mice. After cell application to nude mice, it was determined whether there was cancer or not by imaging with the IVIS device. After the cancer groups were formed, the treatment phase was started. Compound 4(X) substance, compound 3(Y), and cancer control groups were formed, five in each group. Each prepared sample was given to the animals by tail vein administration, three doses (as described in Section 2.3) per week, and the IVIS images taken at 5 min after luciferin (200 μL of 12 mg/mL stock administered […]) at certain time intervals were evaluated. Although no tumor was detected on the 15th day after cell implantation, the treatment was continued for two more weeks and whether the tumor recurred or not was determined by IVIS imaging.

Data set [2] in a line: 28 day subacute toxicity study, blood biochemical parameters. To be noted: for ALB / ALT / AST / TBIL: 200 μM group, 100 μL i.v. 3 times a week for 4 weeks, blood.
[3] abbreviates: 7 days, 200 μM, 20 μL tail vein, three doses a week.

Values joined by “and” are separate entries in the source; they are usually repeats but may differ in a detail not shown here. Equal entries are not always repeated.

For the compound `CC(=O)O[C@H]1C=C[C@H](OC(C)=O)[C@H]2C(=O)N(Cc3ccccc3)C(=O)[C@H]21` [compound 3], inhibition in the data set with A549 cell lines (24 h) was half-maximal at 266 µM (IC50). Besides, in the data set with A549 cell lines (48 h), half-maximal inhibition (IC50) required 114 µM. In addition, 68.8 µM corresponded to half-maximal inhibition in the data set with A549 cell lines (72 h) (IC50). Moreover, in data set [1] (setting [3]), the tumor size entry was “Tnd”. In addition, in data set [1] (15 days), the tumor size entry is listed as “Tnd”. The tumor size result in data set [1] (45 days) was “Tnd”. Also, in data set [1], the “tumor outcome after treatment” value is given as “completely destroyed”; the tumor size initially is 404.93 mm^3 and 301.26 mm^3 and 424.93 mm^3 and 731.33 mm^3 and 600.97 mm^3. Besides, in data set [2], the ALB was determined as 2.34 ± 0.05, the ALT was determined as 60.5 ± 6.36, the AST is given as 114 ± 9.90 and the TBIL turned out to be 0.02 ± 0.01. For the same compound, the “increase of AST level compared with the control group” value in data set [2] (1st dose (200 μM) groups) is reported as “more than the increase related to 4”.

Take `CC(=O)O[C@@H]1[C@@H]2C(=O)N(Cc3ccccc3)C(=O)[C@@H]2C=C[C@H]1Cl` [compound 4]: the IC50 was 349 µM with A549 cell lines (24 h), 116 µM in the data set on A549 cell lines (48 h) and 83.6 µM with A549 cell lines (72 h). The tumor size entry in data set [1] (setting [3]) is “Tnd ^a”; in data set [1] (15 days), “Tnd ^a and Ex”; in data set [1] (45 days), “Tnd ^a and Ex”. Besides, the “tumor outcome after treatment” value in data set [1] was “completely destroyed”. The tumor size initially in data set [1] is 570.91 mm^3 and 403.71 mm^3 and 482.52 mm^3 and 1518.02 mm^3 and 1124.09 mm^3. Besides, the ALB in data set [2] was determined as 2.63 ± 0.07. Besides, in data set [2], the ALT amounted to 57.5 ± 0.71. Also, the AST in data set [2] was 94.5 ± 3.54. Moreover, the TBIL in data set [2] came out at 0.03 ± 0.03.

By IC50 is commonly meant the point on the concentration scale where inhibition reaches its midpoint. A lower IC50 goes with higher potency.

(Values after article PMC10077444, “Evaluation of In Vivo Biological Activity Profiles of Isoindole-1,3-dione Derivatives: Cytotoxicity, Toxicology, and Histopathology Studies” (ACS Omega, 2023).)
